From publication PMC12748989 (Nature Communications, 2025) come the findings set out here.

Structures are written as SMILES.

One experiment concerns PBMC. The note with it: 12.5 µM.

Regarding `CC[C@H](C)[C@H](N)C(=O)N[C@@H](CC(N)=O)C(=O)N[C@@H](CC(C)C)C(=O)N[C@@H](CCCCN)C(=O)N[C@@H](C)C(=O)N[C@@H](CC(C)C)C(=O)N[C@@H](C)C(=O)N[C@H](C(=O)N[C@@H](CC(C)C)C(=O)N[C@@H](C)C(=O)N[C@@H](CCCCN)C(=O)N[C@@H](CCCCN)C(=O)N[C@H](C(=O)N[C@@H](CC(C)C)C(N)=O)[C@@H](C)CC)[C@@H](C)CC` [I8], the “Average (percentage cell inhibition), Dmastoparan MDA-MB231 12.5uM” value with MDA-MB-231 cells amounted to 40.0855%. The “Average (percentage cell inhibition), Mastoparan PBMC” value in the experiment with PBMC worked out at 17.9616%.
For `CC[C@H](C)[C@H](N)C(=O)N[C@@H](CC(N)=O)C(=O)N[C@@H](CC(C)C)C(=O)N[C@@H](CCCCN)C(=O)N[C@@H](C)C(=O)N[C@@H](CC(C)C)C(=O)N[C@@H](C)C(=O)N[C@@H](C)C(=O)N[C@H](C(=O)N[C@@H](C)C(=O)N[C@@H](CCCCN)C(=O)N[C@@H](CCCCN)C(=O)N[C@H](C(=O)N[C@@H](CC(C)C)C(N)=O)[C@@H](C)CC)[C@@H](C)CC` [I9], in that order: 25.9927% and 12.8506%.
On to `CC[C@H](C)[C@H](N)C(=O)N[C@@H](CC(N)=O)C(=O)N[C@@H](CC(C)C)C(=O)N[C@@H](CCCCN)C(=O)N[C@@H](C)C(=O)N[C@@H](CC(C)C)C(=O)N[C@@H](C)C(=O)N[C@@H](C)C(=O)N[C@@H](CC(C)C)C(=O)N[C@H](C(=O)N[C@@H](CCCCN)C(=O)N[C@@H](CCCCN)C(=O)N[C@H](C(=O)N[C@@H](CC(C)C)C(N)=O)[C@@H](C)CC)[C@@H](C)CC` [I10], for which the “Average (percentage cell inhibition), Dmastoparan MDA-MB231 12.5uM” value in the experiment with MDA-MB-231 cells stood at 54.8759%. Besides, the “Average (percentage cell inhibition), Mastoparan PBMC” value in the experiment on PBMC stood at 25.836%.
Regarding `CC[C@H](C)[C@H](N)C(=O)N[C@@H](CC(N)=O)C(=O)N[C@@H](CC(C)C)C(=O)N[C@@H](CCCCN)C(=O)N[C@@H](C)C(=O)N[C@@H](CC(C)C)C(=O)N[C@@H](C)C(=O)N[C@@H](C)C(=O)N[C@@H](CC(C)C)C(=O)N[C@@H](C)C(=O)N[C@H](C(=O)N[C@@H](CCCCN)C(=O)N[C@H](C(=O)N[C@@H](CC(C)C)C(N)=O)[C@@H](C)CC)[C@@H](C)CC` [I11], the “Average (percentage cell inhibition), Dmastoparan MDA-MB231 12.5uM” value in the experiment on MDA-MB-231 cells is on record as 36.5354%. Also, the “Average (percentage cell inhibition), Mastoparan PBMC” value in the experiment with PBMC was determined as 5.295%.
Taken in the same sequence, the figures for `CC[C@H](C)[C@H](N)C(=O)N[C@@H](CC(N)=O)C(=O)N[C@@H](CC(C)C)C(=O)N[C@@H](CCCCN)C(=O)N[C@@H](C)C(=O)N[C@@H](CC(C)C)C(=O)N[C@@H](C)C(=O)N[C@@H](C)C(=O)N[C@@H](CC(C)C)C(=O)N[C@@H](C)C(=O)N[C@@H](CCCCN)C(=O)N[C@H](C(=O)N[C@H](C(=O)N[C@@H](CC(C)C)C(N)=O)[C@@H](C)CC)[C@@H](C)CC` [I12] were 44.3343% and 20.8332%.
Taken in the same sequence, the figures for `CC[C@H](C)[C@H](N)C(=O)N[C@@H](CC(N)=O)C(=O)N[C@@H](CC(C)C)C(=O)N[C@@H](CCCCN)C(=O)N[C@@H](C)C(=O)N[C@@H](CC(C)C)C(=O)N[C@@H](C)C(=O)N[C@@H](C)C(=O)N[C@@H](CC(C)C)C(=O)N[C@@H](C)C(=O)N[C@@H](CCCCN)C(=O)N[C@@H](CCCCN)C(=O)N[C@H](C(=O)N[C@H](C(N)=O)[C@@H](C)CC)[C@@H](C)CC` [I14] were 33.7751% and 14.5337%.
Taken in the same sequence, the figures for `CC[C@H](C)[C@H](NC(=O)[C@H](CCCCN)NC(=O)[C@H](CCCCN)NC(=O)[C@H](C)NC(=O)[C@H](CC(C)C)NC(=O)[C@H](C)NC(=O)[C@H](C)NC(=O)[C@H](CC(C)C)NC(=O)[C@H](C)NC(=O)[C@H](CCCCN)NC(=O)[C@H](CC(C)C)NC(=O)[C@H](CC(N)=O)NC(=O)[C@@H](N)CCCCN)C(=O)N[C@@H](CC(C)C)C(N)=O` [K1] were 35.9182% and 1.227%.
For the compound `CC[C@H](C)[C@H](N)C(=O)N[C@@H](CCCCN)C(=O)N[C@@H](CC(C)C)C(=O)N[C@@H](CCCCN)C(=O)N[C@@H](C)C(=O)N[C@@H](CC(C)C)C(=O)N[C@@H](C)C(=O)N[C@@H](C)C(=O)N[C@@H](CC(C)C)C(=O)N[C@@H](C)C(=O)N[C@@H](CCCCN)C(=O)N[C@@H](CCCCN)C(=O)N[C@H](C(=O)N[C@@H](CC(C)C)C(N)=O)[C@@H](C)CC` [K2], the “Average (percentage cell inhibition), Dmastoparan MDA-MB231 12.5uM” value with MDA-MB-231 cells was 44.3131%. In addition, in the experiment with PBMC, the “Average (percentage cell inhibition), Mastoparan PBMC” value is 14.3506%.
Taken in the same sequence, the figures for `CC[C@H](C)[C@H](N)C(=O)N[C@@H](CC(N)=O)C(=O)N[C@@H](CCCCN)C(=O)N[C@@H](CCCCN)C(=O)N[C@@H](C)C(=O)N[C@@H](CC(C)C)C(=O)N[C@@H](C)C(=O)N[C@@H](C)C(=O)N[C@@H](CC(C)C)C(=O)N[C@@H](C)C(=O)N[C@@H](CCCCN)C(=O)N[C@@H](CCCCN)C(=O)N[C@H](C(=O)N[C@@H](CC(C)C)C(N)=O)[C@@H](C)CC` [K3] were 21.542% and -9.841%.
Taken in the same sequence, the figures for `CC[C@H](C)[C@H](N)C(=O)N[C@@H](CC(N)=O)C(=O)N[C@@H](CC(C)C)C(=O)N[C@@H](CCCCN)C(=O)N[C@@H](CCCCN)C(=O)N[C@@H](CC(C)C)C(=O)N[C@@H](C)C(=O)N[C@@H](C)C(=O)N[C@@H](CC(C)C)C(=O)N[C@@H](C)C(=O)N[C@@H](CCCCN)C(=O)N[C@@H](CCCCN)C(=O)N[C@H](C(=O)N[C@@H](CC(C)C)C(N)=O)[C@@H](C)CC` [K5] were 39.1552% and 10.3023%.
Taken in the same sequence, the figures for `CC[C@H](C)[C@H](N)C(=O)N[C@@H](CC(N)=O)C(=O)N[C@@H](CC(C)C)C(=O)N[C@@H](CCCCN)C(=O)N[C@@H](C)C(=O)N[C@@H](CCCCN)C(=O)N[C@@H](C)C(=O)N[C@@H](C)C(=O)N[C@@H](CC(C)C)C(=O)N[C@@H](C)C(=O)N[C@@H](CCCCN)C(=O)N[C@@H](CCCCN)C(=O)N[C@H](C(=O)N[C@@H](CC(C)C)C(N)=O)[C@@H](C)CC` [K6] were 7.2133% and -1.883%.
Regarding `CC[C@H](C)[C@H](N)C(=O)N[C@@H](CC(N)=O)C(=O)N[C@@H](CC(C)C)C(=O)N[C@@H](CCCCN)C(=O)N[C@@H](C)C(=O)N[C@@H](CC(C)C)C(=O)N[C@@H](CCCCN)C(=O)N[C@@H](C)C(=O)N[C@@H](CC(C)C)C(=O)N[C@@H](C)C(=O)N[C@@H](CCCCN)C(=O)N[C@@H](CCCCN)C(=O)N[C@H](C(=O)N[C@@H](CC(C)C)C(N)=O)[C@@H](C)CC` [K7], the “Average (percentage cell inhibition), Dmastoparan MDA-MB231 12.5uM” value in the experiment with MDA-MB-231 cells came to 38.2404%. The “Average (percentage cell inhibition), Mastoparan PBMC” value with PBMC came to 5.806%.
For `CC[C@H](C)[C@H](N)C(=O)N[C@@H](CC(N)=O)C(=O)N[C@@H](CC(C)C)C(=O)N[C@@H](CCCCN)C(=O)N[C@@H](C)C(=O)N[C@@H](CC(C)C)C(=O)N[C@@H](C)C(=O)N[C@@H](CCCCN)C(=O)N[C@@H](CC(C)C)C(=O)N[C@@H](C)C(=O)N[C@@H](CCCCN)C(=O)N[C@@H](CCCCN)C(=O)N[C@H](C(=O)N[C@@H](CC(C)C)C(N)=O)[C@@H](C)CC` [K8], in that order: 44.6441% and 13.8127%.
For `CC[C@H](C)[C@H](N)C(=O)N[C@@H](CC(N)=O)C(=O)N[C@@H](CC(C)C)C(=O)N[C@@H](CCCCN)C(=O)N[C@@H](C)C(=O)N[C@@H](CC(C)C)C(=O)N[C@@H](C)C(=O)N[C@@H](C)C(=O)N[C@@H](CCCCN)C(=O)N[C@@H](C)C(=O)N[C@@H](CCCCN)C(=O)N[C@@H](CCCCN)C(=O)N[C@H](C(=O)N[C@@H](CC(C)C)C(N)=O)[C@@H](C)CC` [K9], in that order: 18.9586% and -2.726%.
In the case of `CC[C@H](C)[C@H](N)C(=O)N[C@@H](CC(N)=O)C(=O)N[C@@H](CC(C)C)C(=O)N[C@@H](CCCCN)C(=O)N[C@@H](C)C(=O)N[C@@H](CC(C)C)C(=O)N[C@@H](C)C(=O)N[C@@H](C)C(=O)N[C@@H](CC(C)C)C(=O)N[C@@H](CCCCN)C(=O)N[C@@H](CCCCN)C(=O)N[C@@H](CCCCN)C(=O)N[C@H](C(=O)N[C@@H](CC(C)C)C(N)=O)[C@@H](C)CC` [K10], the “Average (percentage cell inhibition), Dmastoparan MDA-MB231 12.5uM” value in the experiment with MDA-MB-231 cells amounted to 22.5673%. Further, in the experiment on PBMC, the “Average (percentage cell inhibition), Mastoparan PBMC” value was 0.05559%.
For `CC[C@H](C)[C@H](N)C(=O)N[C@@H](CC(N)=O)C(=O)N[C@@H](CC(C)C)C(=O)N[C@@H](CCCCN)C(=O)N[C@@H](C)C(=O)N[C@@H](CC(C)C)C(=O)N[C@@H](C)C(=O)N[C@@H](C)C(=O)N[C@@H](CC(C)C)C(=O)N[C@@H](C)C(=O)N[C@@H](CCCCN)C(=O)N[C@@H](CCCCN)C(=O)N[C@@H](CCCCN)C(=O)N[C@@H](CC(C)C)C(N)=O` [K13], in that order: 29.9957% and 5%.
Taken in the same sequence, the figures for `CC[C@H](C)[C@H](N)C(=O)N[C@@H](CC(N)=O)C(=O)N[C@@H](CC(C)C)C(=O)N[C@@H](CCCCN)C(=O)N[C@@H](C)C(=O)N[C@@H](CC(C)C)C(=O)N[C@@H](C)C(=O)N[C@@H](C)C(=O)N[C@@H](CC(C)C)C(=O)N[C@@H](C)C(=O)N[C@@H](CCCCN)C(=O)N[C@@H](CCCCN)C(=O)N[C@H](C(=O)N[C@@H](CCCCN)C(N)=O)[C@@H](C)CC` [K14] were 21.2164% and 6.4564%.
Taken in the same sequence, the figures for `CC[C@H](C)[C@H](NC(=O)[C@H](CCCCN)NC(=O)[C@H](CCCCN)NC(=O)[C@H](C)NC(=O)[C@H](CC(C)C)NC(=O)[C@H](C)NC(=O)[C@H](C)NC(=O)[C@H](CC(C)C)NC(=O)[C@H](C)NC(=O)[C@H](CCCCN)NC(=O)[C@H](CC(C)C)NC(=O)[C@H](CC(N)=O)NC(=O)[C@@H](N)CC(C)C)C(=O)N[C@@H](CC(C)C)C(N)=O` [L1] were 57.5292% and 20.4049%.
